According to patent US20220324835A1 (Nurix Therapeutics, Inc., priority 2018, published 2022):
pIC50, pKd: −log10 of the molar value.

Columns and labels:
T-cell [1] = experiment: IL-2 secretion from T-cells co-stimulated with anti-CD3 and anti-CD28 antibody (Biological Example 2); format: cell-based, human; conditions: Homo sapiens, T-cell, primary human total T-cells, baseline = anti-CD3/anti-CD28 stimulated cells without inhibitor, read-out: IL-2 secretion, Anti-CD3/Anti-CD28 stimulation, fold change over baseline; for fold induction at 0.3 µM: 0.3 μM compound; for fold induction at 1 µM: 1 μM compound; for fold induction at 4 µM: 4 μM compound
In short: (§1)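 No assay protocol given; T-cells stimulated with anti-CD3 alone or anti-CD3 plus anti-CD28, with or without Cbl-b inhibitor. Activation read as IL-2 secretion or CD25 surface staining, expressed as fold over baseline from uninhibited cells […].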

Cbl-b [2] = target: T1, Cbl-b (Homo sapiens, UniProt Q13191); experiment: Cbl-b inhibition assay (Cbl-b activity assay, FRET, Biological Example 1; 100 mM NaCl, 60 nM Src kinase); format: biochemical; conditions: upper bound stated in text lists; read-out: IC50 values in the Cbl-b inhibition assay of Biological Example 1
In short: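 N-terminally biotinylated Avi-tagged Cbl-b was mixed with Src kinase, UbcH5B covalently conjugated to Bodipy-fluorescein ubiquitin, and streptavidin-terbium. Src phosphorylation lets Cbl-b bind UbcH5B-Ub, giving terbium-fluorescein FRET; inhibition is read as loss of FRET signal.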

Cbl-b (residues 36-427) = Cbl-b (residues 36-427) (Homo sapiens, UniProt Q13191); experiment: Cbl-b binding assay (SPR, Biacore T200); conditions: 20° C., 1:1 binding model
In short: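 Affinities derived from global 1:1 steady-state or kinetic fits of double-referenced, solvent-corrected SPR data, 20 °C, NeutrAvidin-capture chip. Compound series (top 100 or 50 μM, 8–10 points) injected 50 s, 90–180 s dissociation. Asterisked values used 50 mM instead of 100 mM NaCl and 30 nM Src kinase.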

T-cell [3] = experiment: IL-2 secretion from T-cells stimulated with anti-CD3 antibody alone (Biological Example 2); format: cell-based; conditions: primary human total T-cells, read-out: IL-2 secretion, Anti-CD3 stimulation, fold change over baseline; for fold induction at 1 µM: 1 μM compound; for fold induction at 8 µM: 8 μM compound
Cbl-b [4] = target: T1, Cbl-b; experiment: Cbl-b activity assay (Cbl-b inhibition assay), TR-FRET of Cbl-b interaction with UbcH5B-Ub; format: biochemical; conditions: assay buffer with 100 mM NaCl, 60 nM Src kinase; read-out: Cbl-b activity IC50
In short: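 TR-FRET readout of Cbl-b binding to Bodipy-fluorescein N-terminally labeled Ub conjugated to UbcH5B C85K, measured with compound present. After compound incubation, 60 nM Src kinase with 1 mM ATP and 5 mM MgCl2 (final) was added for 1.5 h, then a further 1 h incubation; asterisked values used 50 mM NaCl buffer and 30 nM Src.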

T-cell [5] = experiment: CD25 cell surface staining on T-cells stimulated with anti-CD3 antibody alone (Biological Example 2); format: cell-based; conditions: primary human total T-cells, baseline = anti-CD3/anti-CD28 stimulated cells without inhibitor, read-out: CD25 staining, Anti-CD3 stimulation, fold change over baseline; for fold induction at 1 µM: 1 μM compound; for fold induction at 8 µM: 8 μM compound
T-cell [6] = experiment: CD25 cell surface staining on T-cells co-stimulated with anti-CD3 and anti-CD28 antibody (Biological Example 2); format: cell-based, human; conditions: Homo sapiens, T-cell, primary human total T-cells, baseline = anti-CD3/anti-CD28 stimulated cells without inhibitor, read-out: CD25 staining, Anti-CD3/Anti-CD28 stimulation, fold change over baseline; for fold induction at 0.3 µM: 0.3 μM compound; for fold induction at 1 µM: 1 μM compound; for fold induction at 4 µM: 4 μM compound
In short: as §1

Chain of Cbl-b (residues 36-427) (Q13191 36-427): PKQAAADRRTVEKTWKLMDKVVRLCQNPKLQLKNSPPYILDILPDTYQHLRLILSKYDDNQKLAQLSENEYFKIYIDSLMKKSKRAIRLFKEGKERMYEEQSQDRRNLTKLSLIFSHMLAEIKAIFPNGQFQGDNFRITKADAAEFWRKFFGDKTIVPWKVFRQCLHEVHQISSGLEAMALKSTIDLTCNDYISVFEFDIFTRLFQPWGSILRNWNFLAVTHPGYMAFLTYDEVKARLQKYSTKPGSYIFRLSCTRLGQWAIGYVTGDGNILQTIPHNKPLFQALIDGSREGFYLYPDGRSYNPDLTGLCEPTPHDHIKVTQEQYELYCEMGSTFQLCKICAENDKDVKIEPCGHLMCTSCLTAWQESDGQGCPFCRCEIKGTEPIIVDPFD
T1 sequence (Q13191 36-427): as above

Row | SMILES | fold induction at 0.3 µM (T-cell [1]) | fold induction at 1 µM (T-cell [1]) | fold induction at 4 µM (T-cell [1]) | pIC50 (Cbl-b [2]) | pKd (Cbl-b (residues 36-427)) | fold induction at 1 µM (T-cell [3]) | fold induction at 8 µM (T-cell [3]) | pIC50 (Cbl-b [4]) | fold induction at 1 µM (T-cell [5]) | fold induction at 8 µM (T-cell [5]) | fold induction at 0.3 µM (T-cell [6]) | fold induction at 1 µM (T-cell [6]) | fold induction at 4 µM (T-cell [6])
1 | C[C@H](Cc1nncn1C)c1cccc(N2Cc3c(cc(CN4C[C@@H](F)[C@@H](O)C4)cc3C(F)(F)F)C2=O)c1 [Compound 418] | 2.51 to 5 | 5 to 7.5 | > 7.5 | ≥ 7.00 | > 7.00 | 0.151 to 0.2 | > 0.201 | > 7.00 | > 1 | > 1 | 1.01 to 1.3 | 1.31 to 1.5 | 1.31 to 1.5
2 | CC(O)c1cc2c(c(C(F)(F)F)c1)CN(c1cccc([C@H](C)Cc3nncn3C)c1)C2=O (stereo partly drawn) [Compound 436, 6-(1-hydroxyethyl)-2-(3-((R)-1-(4-methyl-4H-1,2,4-triazol-3-yl)propan-2-yl)phenyl)-4-(trifluoromethyl)isoindolin-1-one] | 2.51 to 5 | 5 to 7.5 | > 7.5 | ≥ 7.00 | > 7.00 | 0.151 to 0.2 | > 0.201 | > 7.00 | 0.801 to 1 | > 1 | 1.01 to 1.3 | 1.31 to 1.5 | 1.31 to 1.5
3 | CC(O)c1cc2c(c(C(F)(F)F)c1)CN(c1cccc([C@@](C)(F)C(F)(F)c3nncn3C)c1)C2=O (stereo partly drawn) [Compound 446, 6-(1-hydroxyethyl)-2-(3-((R)-1,1,2-trifluoro-1-(4-methyl-4H-1,2,4-triazol-3-yl)propan-2-yl)phenyl)-4-(trifluoromethyl)isoindolin-1-one] | 1.01 to 2.5 | 1.01 to 2.5 | 5 to 7.5 | ≥ 7.00 | 6.52 to 7.00 | 0.051 to 0.1 | > 0.201 | > 7.00 | 0.801 to 1 | > 1 | 1.01 to 1.3 | 1.01 to 1.3 | 1.01 to 1.3
4 | Cn1cnnc1C(F)(F)[C@](C)(F)c1cccc(N2Cc3c(cc(CN4CC(F)C4)cc3C(F)(F)F)C2=O)c1 [Compound 451, (R)-6-((3-fluoroazetidin-1-yl)methyl)-2-(3-(1,1,2-trifluoro-1-(4-methyl-4H-1,2,4-triazol-3-yl)propan-2-yl)phenyl)-4-(trifluoromethyl)isoindolin-1-one] | 1.01 to 2.5 | 5 to 7.5 | > 7.5 | ≥ 6.52 | > 7.00 | 0.101 to 0.15 | > 0.201 | 6.52 to 7.00 | 0.801 to 1 | > 1 | 1.01 to 1.3 | 1.01 to 1.3 | 1.31 to 1.5
5 | Cn1cnnc1C(F)(F)[C@](C)(F)c1cccc(N2Cc3c(cc(CN4CC[C@H](S(C)(=O)=O)C4)cc3C(F)(F)F)C2=O)c1 [Compound 457, 6-(((S)-3-(Methylsulfonyl)pyrrolidin-1-yl)methyl)-2-(3-((R)-1,1,2-trifluoro-1-(4-methyl-4H-1,2,4-triazol-3-yl)propan-2-yl)phenyl)-4-(trifluoromethyl)isoindolin-1-one] | 2.51 to 5 | 2.51 to 5 | > 7.5 | ≥ 7.00 | > 7.00 | 0.101 to 0.15 | > 0.201 | > 7.00 | 0.801 to 1 | > 1 | 1.01 to 1.3 | 1.01 to 1.3 | 1.01 to 1.3
6 | Cn1cnnc1C(F)(F)[C@](C)(F)c1cccc(N2Cc3c(cc(CN4CC[C@@H](S(C)(=O)=O)C4)cc3C(F)(F)F)C2=O)c1 [Compound 458, 6-(((R)-3-(Methylsulfonyl)pyrrolidin-1-yl)methyl)-2-(3-((R)-1,1,2-trifluoro-1-(4-methyl-4H-1,2,4-triazol-3-yl)propan-2-yl)phenyl)-4-(trifluoromethyl)isoindolin-1-one] | 2.51 to 5 | 5 to 7.5 | > 7.5 | ≥ 7.00 | > 7.00 | 0.151 to 0.2 | > 0.201 | > 7.00 | 0.801 to 1 | > 1 | 1.01 to 1.3 | 1.01 to 1.3 | 1.31 to 1.5
7 | Cc1c[nH]nc1C[C@@H](C)c1cccc(N2Cc3c(cc(C(=O)N4C[C@@H](O)C[C@H]4C)cc3C(F)(F)F)C2=O)c1 [Compound 464, 6-((2R,4S)-4-hydroxy-2-methylpyrrolidine-1-carbonyl)-2-(3-((R)-1-(4-methyl-1H-pyrazol-3-yl)propan-2-yl)phenyl)-4-(trifluoromethyl)isoindolin-1-one] | 1.01 to 2.5 | 2.51 to 5 | > 7.5 | ≥ 7.00 | > 7.00 | 0.151 to 0.2 | > 0.201 | > 7.00 | > 1 | > 1 | 1.01 to 1.3 | 1.01 to 1.3 | 1.31 to 1.5
8 | C[C@H](Cc1n[nH]cc1C(F)(F)F)c1cccc(N2Cc3c(cc(C(=O)N4CC[C@H](O)C4)cc3C(F)(F)F)C2=O)c1 [Compound 465, 6-((S)-3-hydroxypyrrolidine-1-carbonyl)-4-(trifluoromethyl)-2-(3-((R)-1-(4-(trifluoromethyl)-1H-pyrazol-3-yl)propan-2-yl)phenyl)isoindolin-1-one] | 1.01 to 2.5 | 1.01 to 2.5 | 2.51 to 5 | ≥ 7.00 | > 7.00 | 0.051 to 0.1 | 0.151 to 0.2 | > 7.00 | 0.801 to 1 | > 1 | 1.01 to 1.3 | 1.01 to 1.3 | 1.01 to 1.3
9 | C[C@@H](c1cccc(N2Cc3c(cccc3C(F)(F)F)C2=O)c1)C(F)(F)c1nncn1C [Compound 467a, (S)-2-(3-(1,1-difluoro-1-(4-methyl-4H-1,2,4-triazol-3-yl)propan-2-yl)phenyl)-4-(trifluoromethyl)isoindolin-1-one] | 1.01 to 2.5 | 1.01 to 2.5 | 2.51 to 5 | ≥ 6.52 | 6.00 to 6.52 | < 0.05 | 0.101 to 0.15 | 6.52 to 7.00 | 0.601 to 0.8 | 0.801 to 1 | 1.01 to 1.3 | 1.01 to 1.3 | 1.01 to 1.3
10 | Cn1cnnc1C[C@H](c1cccc(N2Cc3c(cccc3C(F)(F)F)C2=O)c1)C(F)(F)F [Compound 471a, (R)-2-(3-(1,1,1-trifluoro-3-(4-methyl-4H-1,2,4-triazol-3-yl)propan-2-yl)phenyl)-4-(trifluoromethyl)isoindolin-1-one] | 1.01 to 2.5 | 1.01 to 2.5 | 1.01 to 2.5 | ≥ 6.52 | 6.00 to 6.52 | 0.051 to 0.1 | 0.101 to 0.15 | 6.52 to 7.00 | 0.601 to 0.8 | 0.801 to 1 | 1.01 to 1.3 | 1.01 to 1.3 | 1.01 to 1.3
